This is an account of results in ChEMBL document CHEMBL1201862, “PubChem BioAssay data set” (2004).

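Briefly, cells in 96-well plates were exposed to five compound concentrations for 48 h, and endpoints were estimated by linear interpolation. Abbreviation: GI50, concentration required for 50% inhibition of growth.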 The source made the active and inactive calls. Cut-off read from the data, not from the text of the source: active = GI50 up to about 1.1 µM and inactive = higher.

What all share (assay): NCI anticancer screen, dose series, 48 h
Test [1] deals with PC-3.
The test system of test [2] is ACHN.
Test [3] relates to 786-0.
Test [4] concerns Malme-3M.
In test [5] the test system is HOP-62.
In test [6] the test system is MDA-MB-231.
Test [7] relates to MDA-MB-435.
Test [8] deals with MOLT-4.
Test [9] relates to SF-268.
Test [10] relates to SK-MEL-28.
Test [11] relates to LOX IMVI.
The test system of test [12] is M14.
Test [13] has as its system HCT-15.
Test [14] concerns T47D.
The test system of test [15] is HT-29.
Test [16] relates to K562.
For test [17], the system named is HOP-92.
Test [18] concerns UO-31.

Take `CCOC(=O)C(NC(=O)CC(C)C)(NC(C)C)C(F)(F)F` (stereo not drawn): the GI50 in test [1], in test [2], in test [3], in [4], in test [5] and in [6] was > 100 µM (inactive) each time. The GI50 in test [7], in test [8], in test [9], in [10], in test [11] and in test [12] was > 100 µM (inactive) in each case. Moreover, the GI50 is above 100 µM in test [13]; > 100 µM (inactive) in test [14]; > 100 µM (inactive) in [15]; > 100 µM (inactive) in test [16]; > 100 µM (inactive) in [17]; > 100 µM (inactive) in test [18].

With `Nc1nc(Cl)cc(NCC2(CO)CC(CCCc3ccccc3)C2)n1` (stereo not drawn), the GI50 was > 81.3 µM (inactive) in [1]; > 41.8 µM (inactive) in [2]; > 81.7 µM (inactive) in [3]; > 100 µM (inactive) in test [4]; > 100 µM (inactive) in [5]; > 100 µM (inactive) in test [6]. Besides, the GI50 in test [7] is > 100 µM (inactive); in test [8], > 26.9 µM (inactive); in test [9], > 100 µM (inactive); in [10], > 100 µM (inactive); in [11] it was 0.282 µM (active); in [12], > 100 µM (inactive). The GI50 in test [13] is above 100 µM; in [14], 2.31 µM (inactive); in test [15] it was 25.4 µM (inactive); in test [16], 2.11 µM (inactive); in test [17], 34 µM (inactive); in test [18] it was 13.8 µM (inactive).

Turning to `CCCC(=O)OC1CC(n2cc(F)c(=O)[nH]c2=O)OC1COP(=O)(OCC(Cl)(Cl)Cl)OCC(Cl)(Cl)Cl` (stereo not drawn), the GI50 is 7.74 µM (inactive) in test [1]; 0.147 µM (active) in [2]; 0.31 µM (active) in [3]; 5.41 µM (inactive) in test [4]; 0.131 µM (active) in test [5]; 24.2 µM (inactive) in test [6]. Also, the GI50 was 18.2 µM (inactive) in test [7]; 2.48 µM (inactive) in test [8]; 0.766 µM (active) in test [9]; 12.3 µM (inactive) in [10]; 16.1 µM (inactive) in [11]; 2.06 µM (inactive) in test [12]. Besides, the GI50 in test [13] is 22.1 µM; in [14] it was 20.7 µM (inactive); in test [15] it was 13.7 µM (inactive); in test [16] it was > 10 µM (inactive); in [17], 4.99 µM (inactive); in [18], 0.49 µM (active).

Turning to `O=[N+]([O-])c1nccn1CCCNCCCn1ccnc1[N+](=O)[O-]`, the GI50 in test [1] is > 100 µM (inactive); in test [2] it was > 100 µM (inactive); in test [3], > 100 µM (inactive); in [4] it was 36.6 µM (inactive); in test [5], > 100 µM (inactive); in test [6], > 100 µM (inactive). In addition, the GI50 in [7] was > 100 µM (inactive); in test [8], > 100 µM (inactive); in [9], > 100 µM (inactive); in test [10], > 100 µM (inactive); in test [11], 74.6 µM (inactive); in test [12], > 100 µM (inactive). In addition, the GI50 in [13] is above 100 µM; in test [14], > 100 µM (inactive); in test [15] it was 85.9 µM (inactive); in [16], > 100 µM (inactive); in test [17] it was > 100 µM (inactive); in test [18], > 100 µM (inactive).

In the case of `COc1cccc2c(=O)oc(-c3ccc(C(C)(C)C)cc3)nc12`, the GI50 in test [1] is > 100 µM (inactive); in test [2], > 100 µM (inactive); in [3], > 100 µM (inactive); in test [4], > 100 µM (inactive); in [5] it was 48.2 µM (inactive); in test [6] it was 58.1 µM (inactive). Also, the GI50 in test [7] was 59.7 µM (inactive); in [8], 22.7 µM (inactive); in test [9], 84.9 µM (inactive); in test [10], > 100 µM (inactive); in test [11], 22.5 µM (inactive); in test [12], 82 µM (inactive). Moreover, the GI50 in test [13] was 65.5 µM; in test [14], 80.4 µM (inactive); in test [15] it was 41.7 µM (inactive); in test [16], > 100 µM (inactive); in test [17], 41.6 µM (inactive); in test [18] it was > 100 µM (inactive).

Consider `c1ccc2c(c1)Sc1nccc3ccnc-2c13`, for which the GI50 in test [1] was 39.2 µM (inactive); in test [2], 13.8 µM (inactive); in [3], 80.4 µM (inactive); in test [4] it was 31.6 µM (inactive); in test [5] it was 35.8 µM (inactive); in [6], > 100 µM (inactive). In addition, the GI50 in [7] is 39.5 µM (inactive); in [8] it was 8.26 µM (inactive); in test [9], 18.7 µM (inactive); in test [10], 36.9 µM (inactive); in test [11], 28.9 µM (inactive); in test [12], 79.1 µM (inactive). Moreover, the GI50 in [13] is above 10 µM; in test [14] it was 27.7 µM (inactive); in test [15], 11.9 µM (inactive); in test [16] it was 71.3 µM (inactive); in [17], 43.6 µM (inactive); in test [18], 7.5 µM (inactive).

`O=C(OCCN1CCCCC1)C(c1ccccc1)C1(O)CCSCC1` (stereo not drawn): the GI50 in test [1], in test [2], in test [3], in [4], in [5] and in test [6] was > 100 µM (inactive) each time. Further, the GI50 in test [7], in [8], in test [9], in [10], in test [11] and in test [12] was > 100 µM (inactive) in each case. Further, the GI50 is above 100 µM in test [13]; > 100 µM (inactive) in test [14]; > 100 µM (inactive) in [15]; > 100 µM (inactive) in test [16]; > 100 µM (inactive) in test [17]; > 100 µM (inactive) in [18].

Regarding `C=C(CC[C@@H](C)[C@H]1CC[C@H]2[C@@H]3C[C@@H](O)[C@H]4C[C@@H](O)CC[C@]4(CO)[C@H]3CC[C@]12C)C(C)C`, the GI50 was 4.94 µM (inactive) in test [1]; 5.81 µM (inactive) in test [2]; 3.75 µM (inactive) in test [3]; 6.49 µM (inactive) in test [4]; 7.57 µM (inactive) in test [5]; 4.17 µM (inactive) in test [6]. Also, the GI50 in test [7] was 7.45 µM (inactive); in test [8], 3.3 µM (inactive); in test [9], 6.35 µM (inactive); in test [10], 4.1 µM (inactive); in test [11] it was 3.11 µM (inactive); in [12] it was 6.97 µM (inactive). Besides, the GI50 was 2.83 µM in test [13]; 1.79 µM (inactive) in test [14]; 1.98 µM (inactive) in test [15]; 1.49 µM (inactive) in test [16]; 8.28 µM (inactive) in test [17]; 3.42 µM (inactive) in test [18].

In the case of `Cc1ccc2c(c1)C1(C)OC(C=CC1=O)O2` (stereo not drawn), the GI50 in test [1] was 0.499 µM (active); in [2] it was 0.522 µM (active); in [3], 0.261 µM (active); in test [4], 0.341 µM (active); in test [5], 3.43 µM (inactive); in [6], 0.564 µM (active). Further, the GI50 in test [7] is 0.182 µM (active); in [8] it was 0.225 µM (active); in test [9], 1.41 µM (inactive); in test [10] it was 0.586 µM (active); in test [11], 0.573 µM (active); in test [12], 0.316 µM (active). The GI50 is 0.265 µM in [13]; 0.705 µM (active) in [14]; 0.267 µM (active) in test [15]; 0.147 µM (active) in test [16]; 0.435 µM (active) in test [17]; 1.14 µM (inactive) in [18].

Turning to `CC(C)(C)OC(=O)NCCCCC(N)C(N)=O` (stereo not drawn), the GI50 in [1], in test [2], in [3], in [4], in test [5] and in test [6] was > 100 µM (inactive) in each case. Also, the GI50 in [7], in test [8], in [9], in test [10], in [11] and in test [12] was > 100 µM (inactive) throughout. The GI50 is above 100 µM in test [13]; > 100 µM (inactive) in [14]; > 100 µM (inactive) in test [15]; > 100 µM (inactive) in test [16]; > 100 µM (inactive) in test [17]; > 100 µM (inactive) in [18].

`Cc1c(-c2ccccc2)nn2cc(-c3ccccc3)nnc12`: the GI50 is 19.6 µM (inactive) in test [1]; 46.3 µM (inactive) in test [2]; 17.2 µM (inactive) in test [3]; 13.3 µM (inactive) in test [4]; 28.7 µM (inactive) in [5]; 18.3 µM (inactive) in test [6]. The GI50 in [7] is 29.5 µM (inactive); in [8], 35.5 µM (inactive); in test [9], 28.6 µM (inactive); in test [10] it was 27.6 µM (inactive); in [11] it was 19 µM (inactive); in test [12] it was 22.6 µM (inactive). The GI50 in [13] was 14.7 µM; in test [14], 61.2 µM (inactive); in test [15] it was 24.2 µM (inactive); in [16] it was 31 µM (inactive); in test [17], 15.5 µM (inactive); in [18], 29.1 µM (inactive).
